Columns and labels:
Hyl = Hyl (Homo sapiens, UniProt P42679); experiment: In vitro kinase assay (Table 1); format: biochemical
PDGFRKalphaT674I (h) = target: T1, PDGFRKalphaT674I (h) (Homo sapiens, UniProt P16234, T674I); experiment: Kinase profiling at Invitrogen; format: biochemical
T1 construct: purchased Invitrogen

BAF/Tel-EphB2-Q2/sACP = target: T2, BAF/Tel-EphB2-Q2/sACP (Homo sapiens, UniProt P29323); experiment: BaF3 proliferation assay; format: cell-based, murine
T2 construct: fused on or other part: P41212 (Transcription factor ETV6)

Lck = Lck (Homo sapiens, UniProt P06239); experiment: In vitro kinase assay (Table 1); format: biochemical
Khs1 (h) = target: T3, Khs1 (h) (Homo sapiens, UniProt Q9Y4K4); experiment: Kinase profiling at Invitrogen; format: biochemical
T3 construct: purchased Invitrogen
T3 sequence (Q9Y4K4 whole entry): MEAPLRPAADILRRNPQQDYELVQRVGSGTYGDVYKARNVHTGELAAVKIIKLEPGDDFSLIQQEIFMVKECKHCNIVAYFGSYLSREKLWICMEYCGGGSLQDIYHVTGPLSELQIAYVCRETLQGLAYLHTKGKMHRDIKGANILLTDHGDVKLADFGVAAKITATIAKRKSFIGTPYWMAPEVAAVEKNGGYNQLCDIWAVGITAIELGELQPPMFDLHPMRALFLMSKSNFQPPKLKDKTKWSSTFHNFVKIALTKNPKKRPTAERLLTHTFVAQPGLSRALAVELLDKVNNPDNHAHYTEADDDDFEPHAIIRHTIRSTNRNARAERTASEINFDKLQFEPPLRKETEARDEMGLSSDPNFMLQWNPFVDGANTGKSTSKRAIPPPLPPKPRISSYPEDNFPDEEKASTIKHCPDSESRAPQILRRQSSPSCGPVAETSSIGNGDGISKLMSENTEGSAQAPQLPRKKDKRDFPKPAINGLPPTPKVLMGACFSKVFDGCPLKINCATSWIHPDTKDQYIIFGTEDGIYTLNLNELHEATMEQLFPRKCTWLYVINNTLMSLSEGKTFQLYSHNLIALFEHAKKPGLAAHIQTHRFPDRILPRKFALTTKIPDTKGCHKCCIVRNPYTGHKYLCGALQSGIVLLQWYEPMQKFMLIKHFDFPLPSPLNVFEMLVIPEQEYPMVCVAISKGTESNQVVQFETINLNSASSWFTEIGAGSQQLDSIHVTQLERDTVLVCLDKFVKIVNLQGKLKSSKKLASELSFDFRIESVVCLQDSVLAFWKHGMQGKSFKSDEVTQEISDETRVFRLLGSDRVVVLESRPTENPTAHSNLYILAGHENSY

FGFR2 = FGFR2 (Homo sapiens, UniProt P21802); experiment: In vitro kinase assay (Table 1); format: biochemical
p38alpha = p38alpha (Homo sapiens, UniProt Q16539); experiment: In vitro kinase assay (Table 1); format: biochemical
BAF/Tel-FLT4-Q2/sACP = target: T4, BAF/Tel-FLT4-Q2/sACP (Homo sapiens, UniProt P35916); experiment: BaF3 proliferation assay; format: cell-based, murine
T4 construct: fused on or other part: P41212 (Transcription factor ETV6)

BaF-wt = experiment: BaF3 proliferation assay; format: cell-based, murine; details: Mus musculus
PDGFRKalpha (h) = target: T5, PDGFRKalpha (h) (Homo sapiens, UniProt P16234); experiment: Kinase profiling at Invitrogen; format: biochemical
T5 construct: purchased Invitrogen
T5 sequence (P16234 24-1089): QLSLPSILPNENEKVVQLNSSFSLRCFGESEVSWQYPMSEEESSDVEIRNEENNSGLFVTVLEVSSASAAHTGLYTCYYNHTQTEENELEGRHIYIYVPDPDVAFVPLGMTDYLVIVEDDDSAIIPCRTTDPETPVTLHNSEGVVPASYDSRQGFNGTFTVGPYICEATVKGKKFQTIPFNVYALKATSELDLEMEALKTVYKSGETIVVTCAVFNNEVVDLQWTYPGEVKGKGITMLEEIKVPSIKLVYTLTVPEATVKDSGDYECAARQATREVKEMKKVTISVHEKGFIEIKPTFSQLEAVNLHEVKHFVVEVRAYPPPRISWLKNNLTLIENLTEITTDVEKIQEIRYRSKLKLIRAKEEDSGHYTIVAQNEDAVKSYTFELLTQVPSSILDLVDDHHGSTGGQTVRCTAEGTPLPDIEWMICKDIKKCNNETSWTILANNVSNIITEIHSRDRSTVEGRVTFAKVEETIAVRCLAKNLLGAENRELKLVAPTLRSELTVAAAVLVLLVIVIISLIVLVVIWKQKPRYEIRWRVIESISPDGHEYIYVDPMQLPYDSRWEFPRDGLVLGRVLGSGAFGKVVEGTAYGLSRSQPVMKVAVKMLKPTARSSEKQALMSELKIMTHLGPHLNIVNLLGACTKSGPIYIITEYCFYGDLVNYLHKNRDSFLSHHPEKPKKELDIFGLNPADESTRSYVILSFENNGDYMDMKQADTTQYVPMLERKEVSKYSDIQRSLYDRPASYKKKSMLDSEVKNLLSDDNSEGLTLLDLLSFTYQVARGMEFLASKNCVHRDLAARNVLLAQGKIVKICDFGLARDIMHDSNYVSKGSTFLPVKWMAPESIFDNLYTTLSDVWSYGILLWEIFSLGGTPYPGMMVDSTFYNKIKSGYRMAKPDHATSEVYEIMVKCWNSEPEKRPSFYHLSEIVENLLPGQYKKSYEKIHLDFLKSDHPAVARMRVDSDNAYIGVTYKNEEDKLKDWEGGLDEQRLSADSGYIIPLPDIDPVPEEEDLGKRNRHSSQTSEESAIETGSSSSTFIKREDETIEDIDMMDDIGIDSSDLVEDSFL

KDR = KDR (Homo sapiens, UniProt P35968); experiment: In vitro kinase assay (Table 1); format: biochemical; details: KDR=VEGF receptor
KDR, sequence (P35968 20-1356, species assumed): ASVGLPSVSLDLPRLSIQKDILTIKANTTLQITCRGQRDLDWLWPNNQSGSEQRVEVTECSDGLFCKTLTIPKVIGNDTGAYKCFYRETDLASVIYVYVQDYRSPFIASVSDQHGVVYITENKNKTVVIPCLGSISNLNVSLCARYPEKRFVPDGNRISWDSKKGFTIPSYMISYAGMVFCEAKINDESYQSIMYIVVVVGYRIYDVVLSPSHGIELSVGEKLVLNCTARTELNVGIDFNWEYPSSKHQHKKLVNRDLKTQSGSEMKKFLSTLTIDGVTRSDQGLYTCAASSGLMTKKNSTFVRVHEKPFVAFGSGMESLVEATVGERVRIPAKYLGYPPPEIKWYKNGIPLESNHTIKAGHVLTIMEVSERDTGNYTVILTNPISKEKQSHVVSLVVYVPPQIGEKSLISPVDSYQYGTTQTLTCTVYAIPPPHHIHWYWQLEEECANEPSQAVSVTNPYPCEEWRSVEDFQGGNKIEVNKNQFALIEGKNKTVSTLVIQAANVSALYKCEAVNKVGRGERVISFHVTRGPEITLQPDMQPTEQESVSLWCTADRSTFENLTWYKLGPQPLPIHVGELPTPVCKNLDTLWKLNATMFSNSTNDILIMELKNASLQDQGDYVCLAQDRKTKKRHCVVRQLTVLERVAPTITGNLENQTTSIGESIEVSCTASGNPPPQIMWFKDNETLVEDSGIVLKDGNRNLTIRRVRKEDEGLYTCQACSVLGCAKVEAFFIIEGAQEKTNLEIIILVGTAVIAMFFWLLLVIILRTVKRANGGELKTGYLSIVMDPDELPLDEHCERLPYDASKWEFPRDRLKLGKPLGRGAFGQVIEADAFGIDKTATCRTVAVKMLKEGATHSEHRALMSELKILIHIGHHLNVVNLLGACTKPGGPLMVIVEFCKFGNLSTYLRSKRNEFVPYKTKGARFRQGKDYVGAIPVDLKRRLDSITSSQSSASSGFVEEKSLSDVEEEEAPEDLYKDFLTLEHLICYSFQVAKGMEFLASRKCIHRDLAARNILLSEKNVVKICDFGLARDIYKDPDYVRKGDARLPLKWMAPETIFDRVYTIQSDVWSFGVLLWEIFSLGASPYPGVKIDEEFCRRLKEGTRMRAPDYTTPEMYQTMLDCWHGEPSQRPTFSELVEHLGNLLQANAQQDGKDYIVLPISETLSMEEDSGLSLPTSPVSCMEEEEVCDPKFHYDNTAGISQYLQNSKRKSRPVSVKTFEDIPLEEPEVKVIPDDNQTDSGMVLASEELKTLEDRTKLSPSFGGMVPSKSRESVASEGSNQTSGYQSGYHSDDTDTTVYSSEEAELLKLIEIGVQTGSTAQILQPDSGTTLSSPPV

BAF/Tel-ZAP70-1.1/sACP = target: T6, BAF/Tel-ZAP70-1.1/sACP (Homo sapiens, UniProt P43403); experiment: BaF3 proliferation assay; format: cell-based, murine
T6 construct: fused on or other part: P41212 (Transcription factor ETV6)

BAF/Tel-TYK2-1.3/sACP = target: T7, BAF/Tel-TYK2-1.3/sACP (Homo sapiens, UniProt P29597); experiment: BaF3 proliferation assay; format: cell-based, murine
T7 construct: fused on or other part: P41212 (Transcription factor ETV6)

BaF-Tel-IGF1R = target: T8, BaF-Tel-IGF1R (Homo sapiens, UniProt P08069); experiment: BaF3 proliferation assay; format: cell-based, murine
T8 construct: fused on or other part: P41212 (Transcription factor ETV6)

BAF/Tel-MET-3.1/sACP = target: T9, BAF/Tel-MET-3.1/sACP (Homo sapiens, UniProt P08581); experiment: BaF3 proliferation assay; format: cell-based, murine
T9 construct: fused on or other part: P41212 (Transcription factor ETV6)

BaF3-Tel-JAK2; clone1 = target: T10, BaF3-Tel-JAK2; clone1 (Homo sapiens, UniProt O60674); experiment: BaF3 proliferation assay; format: cell-based, murine
T10 construct: fused on or other part: P41212 (Transcription factor ETV6)

BAF/Tel-Syk-1.1/sACP = target: T11, BAF/Tel-Syk-1.1/sACP (Homo sapiens, UniProt P43405); experiment: BaF3 proliferation assay; format: cell-based, murine
T11 construct: fused on or other part: P41212 (Transcription factor ETV6)

IL-8 = IL-8 production by human monocytes (ELISA); format: cell-based; details: Monocyte
Experimental: (§1) Freshly isolated human PBMCs were used to purify human monocytes by negative selection using an indirect magnetic labeling system. […] Soluble factors such as cytokines (VEGFa, IL-6 etc.) and chemokines (IL-8, MCP-1, MMP9 etc.) in the culture supernatant were measured using commercial ELISA kits. The in vitro survival of human macrophages was measured using a commercially available CellTiter-Glo® system. Most observed results were repeated in multiple donors (n>5).

MCP-1 = MCP-1 production by human monocytes (ELISA); format: cell-based; details: Monocyte
Experimental: as §1

Erk1 = Erk1 (Homo sapiens, UniProt P27361); experiment: In vitro kinase assay (Table 1); format: biochemical
CamKII alpha = CamKII alpha (Homo sapiens, UniProt Q9UQM7); experiment: In vitro kinase assay (Table 1); format: biochemical
BAF/Tel-Ros-1.1/sACP = target: T12, BAF/Tel-Ros-1.1/sACP (Homo sapiens, UniProt P08922); experiment: BaF3 proliferation assay; format: cell-based, murine
T12 construct: fused on or other part: P41212 (Transcription factor ETV6)

BAF/Tel-TRKB-Q2/sACP = target: T13, BAF/Tel-TRKB-Q2/sACP (Homo sapiens, UniProt Q16620); experiment: BaF3 proliferation assay; format: cell-based, murine
T13 construct: fused on or other part: P41212 (Transcription factor ETV6)

COT = COT (Homo sapiens, UniProt P41279); experiment: In vitro kinase assay (Table 1); format: biochemical
PAK2 = PAK2 (Homo sapiens, UniProt Q13177); experiment: In vitro kinase assay (Table 1); format: biochemical
PAK2, sequence (Q13177 whole entry, species assumed): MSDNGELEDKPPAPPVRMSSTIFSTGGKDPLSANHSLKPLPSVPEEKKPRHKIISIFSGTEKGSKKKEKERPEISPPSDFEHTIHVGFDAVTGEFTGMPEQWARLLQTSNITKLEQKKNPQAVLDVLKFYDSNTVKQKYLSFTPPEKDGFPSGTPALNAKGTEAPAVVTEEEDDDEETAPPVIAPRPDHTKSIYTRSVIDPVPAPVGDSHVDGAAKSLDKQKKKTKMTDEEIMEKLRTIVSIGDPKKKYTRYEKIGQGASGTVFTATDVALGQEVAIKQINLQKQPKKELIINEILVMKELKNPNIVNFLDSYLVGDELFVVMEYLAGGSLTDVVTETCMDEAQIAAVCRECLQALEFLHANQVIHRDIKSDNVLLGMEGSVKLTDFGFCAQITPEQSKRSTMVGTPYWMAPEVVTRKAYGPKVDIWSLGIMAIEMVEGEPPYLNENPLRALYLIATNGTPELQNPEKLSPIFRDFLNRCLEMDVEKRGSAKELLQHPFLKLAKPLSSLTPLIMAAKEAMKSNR

[1] = test system: all other BaF3 cell lines; experiment: BaF3 proliferation assays, all other cell lines; format: cell-based, murine; details: Mus musculus, read-out: Cellular EC50, all other BaF3 cell lines
BAF/Tel-InsR-Q.4/sACP = target: T14, BAF/Tel-InsR-Q.4/sACP (Homo sapiens, UniProt P06213); experiment: BaF3 proliferation assay; format: cell-based, murine
T14 construct: fused on or other part: P41212 (Transcription factor ETV6)

BAF/Tel-AlK-Q1/sACP = target: T15, BAF/Tel-AlK-Q1/sACP (Homo sapiens, UniProt Q9UM73); experiment: BaF3 proliferation assay; format: cell-based, murine
T15 construct: fused on or other part: P41212 (Transcription factor ETV6)

[2] = target: T16, BAF/Tel-IGF1R-FL-N.1/sACP (Homo sapiens, UniProt P08069); experiment: BaF3 proliferation assay; format: cell-based, murine
T16 construct: BAF/Tel-IGF1R-FL- N.1/sACP; fused on or other part: P41212 (Transcription factor ETV6)

PIK3Calpha = PIK3Calpha (Homo sapiens, UniProt P42336); experiment: In vitro kinase assay (Table 1); format: biochemical
BaF-NPM-ALK = target: T17, BaF-NPM-ALK (Homo sapiens, UniProt Q9UM73); experiment: BaF3 proliferation assay; format: cell-based, murine
T17 construct: expressed in transfected cells; host or cells: BaF3 (murine pro-B cell line); the other entry of the earlier key: NPM1 (P06748, Nucleophosmin)
T17 sequence (Q9UM73 with tags, fused parts or gaps): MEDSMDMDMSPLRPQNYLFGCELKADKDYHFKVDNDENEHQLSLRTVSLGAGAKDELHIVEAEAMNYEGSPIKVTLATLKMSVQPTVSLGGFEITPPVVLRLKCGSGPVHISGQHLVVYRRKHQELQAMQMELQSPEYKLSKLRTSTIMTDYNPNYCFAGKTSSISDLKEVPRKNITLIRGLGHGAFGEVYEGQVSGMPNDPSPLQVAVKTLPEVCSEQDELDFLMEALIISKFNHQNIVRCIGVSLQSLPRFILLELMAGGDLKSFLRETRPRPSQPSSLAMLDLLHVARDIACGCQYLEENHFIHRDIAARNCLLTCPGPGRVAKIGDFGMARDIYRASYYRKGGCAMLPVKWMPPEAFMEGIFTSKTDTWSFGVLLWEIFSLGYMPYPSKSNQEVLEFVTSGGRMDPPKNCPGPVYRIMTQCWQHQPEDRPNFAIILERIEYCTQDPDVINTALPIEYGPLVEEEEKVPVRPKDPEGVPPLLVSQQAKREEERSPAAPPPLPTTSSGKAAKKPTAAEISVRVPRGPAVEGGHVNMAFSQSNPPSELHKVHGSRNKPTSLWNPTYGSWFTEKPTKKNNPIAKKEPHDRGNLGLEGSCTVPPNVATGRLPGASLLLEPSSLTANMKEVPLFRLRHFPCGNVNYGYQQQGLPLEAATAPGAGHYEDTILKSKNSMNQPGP

PHKG2 = PHKG2 (Homo sapiens, UniProt P15735); experiment: In vitro kinase assay (Table 1); format: biochemical
Syk = Syk (Homo sapiens, UniProt P43405); experiment: In vitro kinase assay (Table 1); format: biochemical

T1 sequence (P16234 550-1089 T674I limits assumed): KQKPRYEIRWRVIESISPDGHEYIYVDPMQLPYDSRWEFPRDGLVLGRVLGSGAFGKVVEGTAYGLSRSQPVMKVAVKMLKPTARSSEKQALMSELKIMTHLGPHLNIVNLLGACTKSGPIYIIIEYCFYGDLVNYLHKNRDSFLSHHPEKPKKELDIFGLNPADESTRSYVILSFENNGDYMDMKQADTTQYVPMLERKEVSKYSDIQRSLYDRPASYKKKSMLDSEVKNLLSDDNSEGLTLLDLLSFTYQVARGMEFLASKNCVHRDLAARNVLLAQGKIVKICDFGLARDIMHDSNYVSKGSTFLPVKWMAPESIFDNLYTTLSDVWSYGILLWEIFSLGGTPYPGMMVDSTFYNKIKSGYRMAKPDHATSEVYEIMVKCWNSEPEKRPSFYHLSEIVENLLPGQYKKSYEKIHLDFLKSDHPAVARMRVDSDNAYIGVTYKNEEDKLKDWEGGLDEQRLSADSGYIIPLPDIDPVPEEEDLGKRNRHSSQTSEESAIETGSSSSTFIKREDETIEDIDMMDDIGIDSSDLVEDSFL

CNC(=O)c1cc(Oc2ccc3nc(NC4CCCCC4O)sc3c2)ccn1 (stereo not drawn) [Compound (I)]
IC50 (Hyl): > 10 µM
inhibition at 0.5 µM (PDGFRKalphaT674I (h); read-out: % inhibition @ 0.5 μM, PDGFRKalphaT674I (h)): -3%
inhibition at 5 µM (PDGFRKalphaT674I (h); read-out: % inhibition @ 5 μM, PDGFRKalphaT674I (h)): 2%
inhibition at 20 µM (PDGFRKalphaT674I (h); read-out: % inhibition @ 20 μM, PDGFRKalphaT674I (h)): 45%
EC50 (BAF/Tel-EphB2-Q2/sACP): > 10 µM
IC50 (Lck): > 10 µM
inhibition at 0.5 µM (Khs1 (h); read-out: % inhibition @ 0.5 μM, Khs1 (h)): 15%
inhibition at 5 µM (Khs1 (h); read-out: % inhibition @ 5 μM, Khs1 (h)): 27%
inhibition at 20 µM (Khs1 (h); read-out: % inhibition @ 20 μM, Khs1 (h)): 52%
IC50 (FGFR2): > 10 µM
IC50 (p38alpha): > 25 µM
EC50 (BAF/Tel-FLT4-Q2/sACP): > 10 µM
EC50 (BaF-wt): > 10 µM
inhibition at 0.5 µM (PDGFRKalpha (h); read-out: % inhibition @ 0.5 μM, PDGFRKalpha (h)): 28%
inhibition at 5 µM (PDGFRKalpha (h); read-out: % inhibition @ 5 μM, PDGFRKalpha (h)): 41%
inhibition at 20 µM (PDGFRKalpha (h); read-out: % inhibition @ 20 μM, PDGFRKalpha (h)): 55%
IC50 (KDR): > 25 µM
EC50 (BAF/Tel-ZAP70-1.1/sACP): > 10 µM
EC50 (BAF/Tel-TYK2-1.3/sACP): > 10 µM
EC50 (BaF-Tel-IGF1R): > 10 µM
EC50 (BAF/Tel-MET-3.1/sACP): > 10 µM
EC50 (BaF3-Tel-JAK2; clone1): > 10 µM
EC50 (BAF/Tel-Syk-1.1/sACP): > 10 µM
inhibition at 0.05 µM (IL-8): 7 to 90%
inhibition at 0.05 µM (MCP-1): 30 to 70%
IC50 (Erk1): > 10 µM
IC50 (CamKII alpha): > 10 µM
EC50 (BAF/Tel-Ros-1.1/sACP): > 10 µM
EC50 (BAF/Tel-TRKB-Q2/sACP): > 10 µM
IC50 (COT): > 25 µM
IC50 (PAK2): > 25 µM
EC50 [1]: > 10 µM
EC50 (BAF/Tel-InsR-Q.4/sACP): > 10 µM
EC50 (BAF/Tel-AlK-Q1/sACP): > 10 µM
EC50 [2]: > 10 µM
IC50 (PIK3Calpha): > 25 µM
EC50 (BaF-NPM-ALK): > 10 µM
IC50 (PHKG2): > 10 µM
IC50 (Syk): > 10 µM
